Broadly, the melting point is the temperature of the solid-liquid transition.

Two compounds from patent US7045515B2, “β-lactam compounds process for reproducing the same and serum cholesterol-lowering agents containing the same” (Kotobuki Pharmaceutical Co., Ltd., priority 2001, dated 2006) can be followed below.

The test system of series [1] is α-N-acetyl-D-galactosaminidase. Nature of the series: Biological stability test against glycosidase (remaining substrate by NMR). Format: in vitro ADME. Conditions: for remaining substrate: α-N-acetyl galactosaminidase 0.32 unit, citric acid buffer pD=3, 35° C. As to the method:
[Biological Stability Test]
To evaluate the stability of C-glycoside, the biological stability of C-allyl derivative (A) and O-allyl derivative (B) against to α-N-acetyl-D-galactosaminidase as glycosidase ware compared according to Mark von Itzstein's method (Org. Lett., 1999, 1, 443–446).
[drawing 118] • enzyme; α-N-acetyl galactosaminidase 0.32 unit (1.69 unit/mL 0.1% BSA containing 0.5M sodium citrate buffer) • solvent; citric acid buffer (pD=3) 0.6 mL • temperature; 35° C. • procedure; Substrate (2 mg) was dissolved in citric acid buffer (0.6 mL) and α-N-acetyl galactosaminidase (0.32 unit) was added. NMR spectrum was determined in every constant time and the content of the remaining substrates were determined.

Series [2] relates to hypercholesterolemic hamster. Nature of the series: Hypocholesterolemic activity in hamsters fed a 0.5%-cholesterol diet. The format is in vivo. Conditions: Mesocricetus auratus, po, 96 h; 0.3 mg/kg orally daily, dosage day 4; changed percent, negative = hypocholesterolemic action; read-out: Serum cholesterol (%). How it is done:
[Hypocholesterolemic Agents Using the Hypercholesterolemic Hamster]
Hamsters were derived into groups with 3 animals per group and fed a 0.5%-cholesterol containing CE-2 diet (CLEA Japan Inc.) for 4 or 7 days. The normal dietary group were fed a standard CE-2 during the experiment. Each compound or vehicle (0.2 mL of corn oil) per 100 g body weight was orally administered daily for 4 or 7 days from the day that high-cholesterol diet was started. At 20 hr after the final administration, blood samples were collected from the abdominal aorta of non-fasted animals under anesthesia with diethylether. Serum cholesterol was measured by enzymatic method using cholesterol E-test wako (Wako Pure Chemical Industries). Activity of the test compounds is expressed as percent reduction of the test compound on the basis of comparison with rised total cholesterol treated only with no-treatment-high-cholesterol diet. The test compounds with the optical rotation value in the compounds 1–58 were evaluated as the chiral compounds.

Take `C=CC[C@H]1O[C@H](CO)[C@H](O)[C@H](O)[C@H]1NC(C)=O` [A]: the “effect of enzyme on substrate (degradation)” value in series [1] (after 24 h) was “unaffected by enzyme”. Further, the remaining substrate in series [1] (time 2), in series [1] (time 4), in series [1] (time 6), in series [1] (time 8), in series [1] (time 10) and in series [1] (time 12) was 100 throughout. For the same compound, the remaining substrate in series [1] (time 18) and in series [1] (time 24) was 100 in each case.
Compound `Cc1ccc(N2C(=O)[C@H](CC[C@H](O)c3ccc(F)cc3)[C@H]2c2ccc(CC[C@@H]3O[C@H](CO)[C@@H](O)[C@H](O)[C@H]3O)cc2)cc1` [Compound 57] gave a melting point of 116 to 118 °C. Besides, the change in vivo at 0.3 mg/kg in series [2] was -81.3%.
